Values of other authors, collected in patent US6344444B1 (Nutrition 21, priority 1997, dated 2002).

Key:
[1] = system: cholesterol-induced intimal hyperplasia; conditions: rabbits, injection or ingestion
femoral density = conditions: postmenopausal women, injection 50 mg twice weekly, over 14 months
bone turnover = conditions: ovariectomized rats, oral

Molecule | intimal thickening and fragmentation of arterial elastic fibers [1] | increase of femoral density (average) (femoral density) [%] | bone formation rate (bone turnover) | bone turnover (bone turnover)
NCCCC[C@H](N)C(=O)O.O[Si](O)(O)O [lysine silicate] | prevented | – | – | –
C[Si](O)(O)O [monomethyltrisilanol] | prevented | 4.7 | – | –
orthosilicic acid | – | – | increased | slowed
